From patent US8722649B2, “Alpha-chloro and alpha-bromo phosphonate analogs of lysophosphatidic acid and methods of making and using thereof” (University of Utah Research Foundation, priority 2007, dated 2014)
Entries after “also recorded” stand apart in the source; their conditions may differ.

Legend:
[1] = tested on: LPA GPCRs; test: Ca2+ mobilization assay, overall profile across LPA GPCRs; assay type: cell-based, human; settings: across LPA1-4
Procedure: After incubating the cells with Fura-2 AM, the cells were rinsed with Krebs buffer and changes in the intracellular Ca^2+ concentration were monitored by determining the ratio of emitted light intensities at 520 nm in response to excitation at 340 and 380 nm using FLEXstation II (Molecular Devices, Sunnyvale, Calif.). Each well was monitored for 80-120 sec. For testing agonist activity of the compounds, the test compounds were added automatically after 15 sec of baseline measurement. To determine antagonist properties, varying concentrations of the compounds were mixed with a constant concentration of LPA and responses were monitored. Each test was performed in quadruplicate. EC50, IC50, and Ki values were calculated by fitting a sigmoid function to data points with the nonlinear curve-fitting feature of KaleidaGraph (Synergy Software, Essex Junction, Vt.).
Receptor activation using Ca^2+ mobilization assay. The assay for mobilization of intracellular Ca^2+ was performed as described. […] Using a FLEXStation (Molecular Devices, Sunnyvale, Calif.), changes in intracellular Ca^2+ concentration were monitored. Ligand-induced changes in fluorescence were monitored for 80-120 seconds. Ca^2+ transients were quantified automatically by calculating the difference between maximum and baseline ratio values for each sample. […] EC50, IC50, and Ki values were calculated as described. […]

[2] = tested on: HCT 116 cells; test: HCT 116 proliferation (MTS); assay type: cell-based; settings: 2, 10, 20 μM, 72 h
From the text: Effects of bromo-LPA analogs on HCT 116 proliferation. HCT 116 cells were purchased from the American Type Culture Collection (Manassas, Mass.). Medium and reagents were obtained from the following sources: McCoy's 5a Medium (ATCC, Manassas, Va.); Penicillin-Streptomycin (MP biomedicals, Solon, Ohio); Fetal bovine serum (ATCC, Manassas, Mass.); Accutase (MP biomedicals, Solon, Ohio); MTS (Promega, Madison, Wis.); Matrigel (Becton Dickinson Labware, Cambridge, Mass.); Extracel (Glycosan, Salt Lake City, Utah). Lysophosphatidic acid receptor pan-Antagonist (LPAa)—the pure diastereomers 1a and 1b, and the mixed diastereomers 1 (University of Utah, Salt Lake City, Utah).
HCT 116 cells were maintained in McCoy's 5a medium supplemented with 10% FBS, 100 μg/ml streptomycin, and 100 units/ml penicillin at 37° C. in 95% air, 5% CO2. 4,000HCT-116 cells were seeded in 100 μl media in each well of 96-well flat-bottomed microplates (BD Labware, N.J.). The pure diastereomers 1a and 1b, and the mixed diastereomers 1 were added at various final concentrations (2 μM, 10 μM, 20 μM) to each column. At 72 h, pipet 20 μl MTS (Promega, Madison, Wis.) into each well, and cells were further incubated for 2 h. The absorbance of the samples at 490 nm was measured using a 96-well plate reader (OPTI max, Sunnyvale, Calif.).

[3] = tested on: HCT 116 cells; test: HCT 116 wound-healing migration assay; assay type: cell-based; settings: 20 μM; 0, 16, 24 and 48 hours
Procedure: Effects of BrP-LPA analogs on HCT 116 migration. HCT 116 (2×10^5 per well) were plated in a six-well plate. When the cells were 100% confluent, the cells were treated with Mitomycin C (Sigma, MO, USA) 10 μg/ml for 2 hours, and then the monolayer was scratched using a 200 μl pipette tip. Medium and nonadherent cells were aspirated, the adherent cells were washed once, and new medium containing various concentrations of the pure diastereomers 1a and 1b, and the mixed diastereomers 1 (2 μM, 10 μM, 20 μM) was added (FIG. 13). A photograph was taken at the marked field (n=4) at 0, 16, 24 and 48 hours (FIG. 14). Wound closure was expressed as a percentage of the initial wound area, which was quantified using NIH ImageJ software.

[4] = tested on: HCT 116 cells; test: Hepatic colon cancer tumor growth; assay type: in vivo, nude mice; settings: 10 mg/kg i.p. twice per week
Procedure: Four-week-old female athymic nude mice (Charles River Laboratories, Wilmington, Mass.) were used for colon cell implantation. All animals were maintained in a sterile environment. Cages, bedding, food, and water were all autoclaved. All animals were maintained on a daily 12-hr light/12-hr dark cycle.
Nude mice were anesthetized by intraperitoneal injection of ketamine (80 mg/kg) and xylazine (10 mg/kg) according to the protocol approved by the University of Utah Institutional Animal Care and Use Committee (IACUC).
After anesthesia induction, the aseptic surgical field was sterilized with iodine and alcohol swabs. HCT 116 cells (1×10^6) in 50 μl of the sECM hydrogel Extracel was directly injected into the livers of nude mice after they had been randomly assigned to one of the groups at the beginning of the experiment (8 mice/group).
The control group received physiological saline i.p. injection twice per week starting at one week after the cell transplantation and ended at two weeks after the treatment. The treatment group received i.p. administration of the pure diastereomers 1b at 10 mg/kg twice per week with the same period of control group.
Mice were observed daily. Animals were euthanized at 3 weeks post-injection in a carbon dioxide chamber. Body weights were measured, and the livers were excised. Liver weights and tumor diameters were subsequently determined. Colon tumors were measured using digital calipers. The volume of the cancer was then calculated according to the formula: Cancer Volume (CV)=d2×D/2, where d and D are the shortest and the longest diameters, respectively. After measurement, the tumor tissue was then harvested and placed in 10% formalin for paraffin embedding in preparation for the subsequent histological analyses.

## CCCCCCCCCCCCCCCC(=O)OC[C@@H](O)C[C@@H](Br)P(=O)(O)O [Compound 1a]
[1]
  overall LPA GPCR ligand profile: pan-antagonist

## CCCCCCCCCCCCCCCC(=O)OC[C@@H](O)C[C@H](Br)P(=O)(O)O [Compound 1b]
[2]
  HCT 116 cell proliferation: highly suppressed; also recorded: dose-dependent inhibition
[3]
  HCT 116 cell migration: greatest inhibition
[4]
  hepatic tumor burden (liver weight): marked reduction of hepatic tumor burden; also recorded: significantly reduced tumor burden
  new blood vessels in hepatic colon tumor (H&E): significantly reduced amounts of new blood vessels
[4]; vs untreated control
  hepatic tumor size / tumor volume in words: significantly smaller; also recorded: significant decrease in tumor volume; also recorded: smaller than the untreated control
